In patent US20240382438A1, “Calcium Channel Blockers and Methods Thereof” (University of Maryland, Eastern Shore, priority 2023, published 2024):
pIC50: −log10 of the molar value. Entries after “also recorded” stand apart in the source; their conditions may differ. Blank lines part the entries; values can stand above or below the molecule they belong to.

Columns and labels:
[1] = molecular target: T1, human Cav3.2 (Homo sapiens, UniProt O95180); experiment: Whole-cell patch clamp of T-type Ca2+ currents in Cav3.2-stable transfected HEK 293 cells; format: cell-based
T1 construct: host or cells: HEK 293
T1 sequence (O95180 whole entry): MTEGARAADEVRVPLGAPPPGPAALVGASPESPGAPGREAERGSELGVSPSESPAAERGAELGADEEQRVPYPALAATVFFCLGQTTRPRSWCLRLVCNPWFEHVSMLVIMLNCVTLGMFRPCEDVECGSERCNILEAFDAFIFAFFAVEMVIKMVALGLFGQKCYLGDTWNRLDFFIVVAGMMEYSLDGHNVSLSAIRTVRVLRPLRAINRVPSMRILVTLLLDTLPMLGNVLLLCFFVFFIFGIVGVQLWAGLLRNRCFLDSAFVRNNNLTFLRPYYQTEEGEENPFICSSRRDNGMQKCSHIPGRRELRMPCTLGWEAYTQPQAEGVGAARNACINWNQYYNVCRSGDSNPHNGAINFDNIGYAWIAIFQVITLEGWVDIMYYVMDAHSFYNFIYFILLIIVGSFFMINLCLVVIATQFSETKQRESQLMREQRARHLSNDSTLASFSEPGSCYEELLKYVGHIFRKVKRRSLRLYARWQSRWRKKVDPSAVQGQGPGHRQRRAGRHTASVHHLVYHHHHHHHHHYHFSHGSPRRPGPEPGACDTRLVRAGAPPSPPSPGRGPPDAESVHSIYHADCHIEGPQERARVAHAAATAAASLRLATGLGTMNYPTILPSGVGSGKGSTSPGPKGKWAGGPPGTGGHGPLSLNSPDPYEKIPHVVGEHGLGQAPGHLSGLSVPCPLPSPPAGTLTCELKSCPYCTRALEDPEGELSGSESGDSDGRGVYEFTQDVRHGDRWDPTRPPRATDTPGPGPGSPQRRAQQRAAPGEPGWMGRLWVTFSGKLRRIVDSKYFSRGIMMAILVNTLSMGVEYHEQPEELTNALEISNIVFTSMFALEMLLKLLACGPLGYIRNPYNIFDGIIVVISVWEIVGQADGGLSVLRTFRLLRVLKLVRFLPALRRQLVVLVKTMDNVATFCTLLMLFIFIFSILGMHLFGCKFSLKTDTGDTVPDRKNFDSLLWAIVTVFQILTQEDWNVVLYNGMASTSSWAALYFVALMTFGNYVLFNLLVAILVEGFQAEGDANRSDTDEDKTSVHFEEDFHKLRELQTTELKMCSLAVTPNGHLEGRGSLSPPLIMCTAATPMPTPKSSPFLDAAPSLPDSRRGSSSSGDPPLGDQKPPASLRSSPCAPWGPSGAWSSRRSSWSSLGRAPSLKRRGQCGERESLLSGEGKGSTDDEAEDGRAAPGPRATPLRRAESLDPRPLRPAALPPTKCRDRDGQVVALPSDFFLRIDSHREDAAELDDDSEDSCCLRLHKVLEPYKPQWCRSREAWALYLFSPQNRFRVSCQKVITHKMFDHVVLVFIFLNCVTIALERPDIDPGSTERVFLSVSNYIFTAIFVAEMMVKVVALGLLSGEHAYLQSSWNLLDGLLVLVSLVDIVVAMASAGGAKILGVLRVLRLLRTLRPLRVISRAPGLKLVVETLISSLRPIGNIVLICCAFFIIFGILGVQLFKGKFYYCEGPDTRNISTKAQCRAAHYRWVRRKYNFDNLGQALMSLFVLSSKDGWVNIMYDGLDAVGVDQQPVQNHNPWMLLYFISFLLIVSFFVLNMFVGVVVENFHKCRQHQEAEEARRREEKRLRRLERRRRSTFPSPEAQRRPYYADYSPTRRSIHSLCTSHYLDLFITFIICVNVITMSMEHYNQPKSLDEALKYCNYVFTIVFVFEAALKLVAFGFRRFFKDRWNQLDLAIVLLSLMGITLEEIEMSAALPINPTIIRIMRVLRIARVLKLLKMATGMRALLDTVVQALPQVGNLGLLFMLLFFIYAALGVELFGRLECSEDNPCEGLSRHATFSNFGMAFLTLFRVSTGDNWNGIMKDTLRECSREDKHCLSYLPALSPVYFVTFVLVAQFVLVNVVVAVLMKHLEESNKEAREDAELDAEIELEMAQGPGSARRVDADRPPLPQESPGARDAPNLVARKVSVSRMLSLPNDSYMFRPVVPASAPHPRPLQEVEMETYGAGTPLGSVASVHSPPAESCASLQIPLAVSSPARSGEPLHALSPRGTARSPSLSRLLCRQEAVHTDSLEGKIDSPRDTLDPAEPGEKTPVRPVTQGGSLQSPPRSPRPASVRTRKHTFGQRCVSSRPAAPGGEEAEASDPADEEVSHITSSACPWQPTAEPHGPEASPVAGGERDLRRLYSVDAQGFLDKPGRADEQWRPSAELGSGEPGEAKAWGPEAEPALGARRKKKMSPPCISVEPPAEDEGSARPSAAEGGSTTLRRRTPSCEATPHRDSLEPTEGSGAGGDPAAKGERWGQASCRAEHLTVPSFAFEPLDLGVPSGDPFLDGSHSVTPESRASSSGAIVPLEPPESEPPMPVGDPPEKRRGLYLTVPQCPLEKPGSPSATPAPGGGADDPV
Protocol: Certain exemplary embodiments have undergone target identification studies to discover a better officious T-type calcium blocker. The fourteen trifluoromethylated N-benzamide enaminone compounds were synthesized, purified, and structure confirmed using gas chromatography/mass spectroscopy, nuclear magnetic resonance, and elemental analysis. Preliminary in vitro whole cell patch clamp experiments were performed to assess the inhibitory effects of several target analogs on voltage-activated calcium currents in human embryonic kidney (HEK-293) cells. Cav3.2 transfected HEK 293 cells were treated with 50 μM of test compounds and compared to the control group (none pretreated HEK 293 cells).
(§1) ND7/23 cells are derived from the fusion of mouse neuroblastoma and rat dorsal root ganglion cells, which generates a more homogeneous sensory neuron-like cell population. ND7/23 cells were purchased from Sigma-Aldrich (RRID:CVCL_4259). Culture and differentiation of ND7/23 cells was performed as previously described. Briefly, ND7/23 cells were cultured in DMEM/F12 culture media (Millipore, Cat. #DF-041-B), supplemented with 0.5% fetal bovine serum (Invitrogen, Cat. #10437010), db-cAMP (1 mM, Sigma-Aldrich, Cat. #D0627), and nerve growth factor (NGF, 50 ng/mL, Sigma-Aldrich, Ca. #N2513). To remove any proliferating cells, cultures were treated with uridine (20 μM, Sigma-Aldrich, Cat. #U3003) and fluorodeoxyuridine (20 μM, Sigma-Aldrich, Cat. #F0503). Cells were maintained in differentiation media without uridine and fluorodeoxyuridin after induction of differentiation. ND7/23 cells were maintained in differentiation media for ≤6 days. HEK 293 cells that were stabled transfected with the human Cav3.2 and Cav3.3 channel subunits were a gift of Dr. E. Perez-Reyes (University of Virginia). Cav3.2 (or Cav3.3)-stabled transfected HEK 293 cells were culture in DMEM/F12 culture media, supplemented with 5% fetal bovine serum, 50 U/mL penicillin and 50 μg/mL streptomycin. ND7/23 and HEK 293 cells were grown in an incubator at 37° C. in the presence of 5% CO2/95% air humidified atmosphere. Cells passaged less than 20 times were used in this work. Cells were grown in poly-D-lysine-coated glass coverslips for electrophysiological recordings.
Whole cell recordings were performed as previously described. A Nikon Eclipse Ti inverted microscope equipped with Hoffman optics and epifluorescence filters was used to visualize individual cells. Recordings were performed at room temperature (22-24° C.) using glass electrodes made from thin wall borosilicate glass (3-5 MΩ). For electrophysiological recordings of inward Ca^2+ currents, outward K^+ currents were eliminated by equimolar substitution of K^+ with Cs^+ in the pipette solution, whereas inward Na^+ currents were eliminated by the use of TEA ions in the external solution, which are unable to go through voltage-gated Na^+ channels. The pipette solution consisted of (in mM) CsCl (120), MgCl2(2), HEPES (10), EGTA (10), ATP (1), and GTP (0.1), pH 7.4 with CsOH. The composition of the normal external saline used for measurements of Ca^2+ currents was (in mM): tetraethylammonium chloride (TEACl, 145), CaCl2 (10), MgCl2(1), HEPES (10), and glucose (5), pH 7.4 adjusted with CsOH. Ca^2+ currents were generated by applying a 200-500 ms-depolarizing step to various potentials from a holding potential of −100 mV. The external solution used to measure Na^+ currents contained (in mM) NaCl (145), KCl (5.3), CaCl2 (0.5), MgCl2 (5.7), HEPES (13), and glucose (5), pH 7.4 adjusted with KOH. The composition of the CsCl-pipette solution used to record Na^+ currents was the same describe above. Na^+ currents were generated by applying a 20 ms-depolarizing step to various potentials from a holding potential of −100 mV. To assess drug-evoked changes on specific ionic conductances, current amplitudes were expressed as current densities as previously reported. […]

[2] = tested on: T-type Ca^2+ channels; experiment: Whole-cell recording of T-type Ca2+ currents in differentiated ND7/23 cells; format: cell-based, mouse neuroblastoma and rat dorsal root ganglion cells; details: for Effect on T-type Ca2+ current density: vs non-treated cells
Protocol: as §1
(§2) Whole cell recordings were performed as previously described. A Nikon Eclipse Ti inverted microscope equipped with Hoffman optics and epifluorescence filters was used to visualize individual cells. Recordings were performed at room temperature (22-24° C.) using glass electrodes made from thin wall borosilicate glass (3-5 MΩ). For electrophysiological recordings of inward Ca^2+ currents, outward K^+ currents were eliminated by equimolar substitution of K^+ with Cs^+ in the pipette solution, whereas inward Na^+ currents were eliminated by the use of TEA ions in the external solution, which are unable to go through voltage-gated Na^+ channels. The pipette solution consisted of (in mM) CsCl (120), MgCl2(2), HEPES (10), EGTA (10), ATP (1), and GTP (0.1), pH 7.4 with CsOH. The composition of the normal external saline used for measurements of Ca^2+ currents was (in mM): tetraethylammonium chloride (TEACl, 145), CaCl2 (10), MgCl2(1), HEPES (10), and glucose (5), pH 7.4 adjusted with CsOH. Ca^2+ currents were generated by applying a 200-500 ms-depolarizing step to various potentials from a holding potential of −100 mV. The external solution used to measure Na^+ currents contained (in mM) NaCl (145), KCl (5.3), CaCl2 (0.5), MgCl2 (5.7), HEPES (13), and glucose (5), pH 7.4 adjusted with KOH. The composition of the CsCl-pipette solution used to record Na^+ currents was the same describe above. Na^+ currents were generated by applying a 20 ms-depolarizing step to various potentials from a holding potential of −100 mV. To assess drug-evoked changes on specific ionic conductances, current amplitudes were expressed as current densities as previously reported. To assess current densities, cell size was normalized by dividing current amplitudes by cell capacitance. Cell capacitance was determined by integrating the transient current evoked by a 10-mV voltage step from a holding potential of −60 mV.
(§3) A MULTICLAMP 700A amplifier and PCLAMP software (Axon Instruments) was used to deliver voltage commands and to perform data acquisition and analysis. Pipette offset, whole cell capacitance, and series resistance were compensated automatically with the MultiClamp 700B Commander. Only cells with stable seals and series resistance (≤10 MΩ) were analyzed. Sampling rates were between 5 and 10 kHz. Leak currents were subtracted online using a P/4 protocol. […]

[3] = tested on: voltage-activated Na^+ channels; experiment: Whole-cell recording of Na+ currents in differentiated ND7/23 cells; format: cell-based, mouse neuroblastoma and rat dorsal root ganglion cells; details: 50 μM
Protocol: as §1
Whole cell recordings were performed as previously described. A Nikon Eclipse Ti inverted microscope equipped with Hoffman optics and epifluorescence filters was used to visualize individual cells. Recordings were performed at room temperature (22-24° C.) using glass electrodes made from thin wall borosilicate glass (3-5 MΩ). For electrophysiological recordings of inward Ca^2+ currents, outward K^+ currents were eliminated by equimolar substitution of K^+ with Cs^+ in the pipette solution, whereas inward Na^+ currents were eliminated by the use of TEA ions in the external solution, which are unable to go through voltage-gated Na^+ channels. […] To assess drug-evoked changes on specific ionic conductances, current amplitudes were expressed as current densities as previously reported. […] Cell capacitance was determined by integrating the transient current evoked by a 10-mV voltage step from a holding potential of −60 mV.
A MULTICLAMP 700A amplifier and PCLAMP software (Axon Instruments) was used to deliver voltage commands and to perform data acquisition and analysis. […] Only cells with stable seals and series resistance (≤10 MΩ) were analyzed. […]

[4] = molecular target: T2, human Cav3.3 (Homo sapiens, UniProt Q9P0X4); experiment: Whole-cell patch clamp of T-type Ca2+ currents in Cav3.3-stable transfected HEK 293 cells; format: cell-based
T2 construct: host or cells: HEK 293
T2 sequence (Q9P0X4 whole entry): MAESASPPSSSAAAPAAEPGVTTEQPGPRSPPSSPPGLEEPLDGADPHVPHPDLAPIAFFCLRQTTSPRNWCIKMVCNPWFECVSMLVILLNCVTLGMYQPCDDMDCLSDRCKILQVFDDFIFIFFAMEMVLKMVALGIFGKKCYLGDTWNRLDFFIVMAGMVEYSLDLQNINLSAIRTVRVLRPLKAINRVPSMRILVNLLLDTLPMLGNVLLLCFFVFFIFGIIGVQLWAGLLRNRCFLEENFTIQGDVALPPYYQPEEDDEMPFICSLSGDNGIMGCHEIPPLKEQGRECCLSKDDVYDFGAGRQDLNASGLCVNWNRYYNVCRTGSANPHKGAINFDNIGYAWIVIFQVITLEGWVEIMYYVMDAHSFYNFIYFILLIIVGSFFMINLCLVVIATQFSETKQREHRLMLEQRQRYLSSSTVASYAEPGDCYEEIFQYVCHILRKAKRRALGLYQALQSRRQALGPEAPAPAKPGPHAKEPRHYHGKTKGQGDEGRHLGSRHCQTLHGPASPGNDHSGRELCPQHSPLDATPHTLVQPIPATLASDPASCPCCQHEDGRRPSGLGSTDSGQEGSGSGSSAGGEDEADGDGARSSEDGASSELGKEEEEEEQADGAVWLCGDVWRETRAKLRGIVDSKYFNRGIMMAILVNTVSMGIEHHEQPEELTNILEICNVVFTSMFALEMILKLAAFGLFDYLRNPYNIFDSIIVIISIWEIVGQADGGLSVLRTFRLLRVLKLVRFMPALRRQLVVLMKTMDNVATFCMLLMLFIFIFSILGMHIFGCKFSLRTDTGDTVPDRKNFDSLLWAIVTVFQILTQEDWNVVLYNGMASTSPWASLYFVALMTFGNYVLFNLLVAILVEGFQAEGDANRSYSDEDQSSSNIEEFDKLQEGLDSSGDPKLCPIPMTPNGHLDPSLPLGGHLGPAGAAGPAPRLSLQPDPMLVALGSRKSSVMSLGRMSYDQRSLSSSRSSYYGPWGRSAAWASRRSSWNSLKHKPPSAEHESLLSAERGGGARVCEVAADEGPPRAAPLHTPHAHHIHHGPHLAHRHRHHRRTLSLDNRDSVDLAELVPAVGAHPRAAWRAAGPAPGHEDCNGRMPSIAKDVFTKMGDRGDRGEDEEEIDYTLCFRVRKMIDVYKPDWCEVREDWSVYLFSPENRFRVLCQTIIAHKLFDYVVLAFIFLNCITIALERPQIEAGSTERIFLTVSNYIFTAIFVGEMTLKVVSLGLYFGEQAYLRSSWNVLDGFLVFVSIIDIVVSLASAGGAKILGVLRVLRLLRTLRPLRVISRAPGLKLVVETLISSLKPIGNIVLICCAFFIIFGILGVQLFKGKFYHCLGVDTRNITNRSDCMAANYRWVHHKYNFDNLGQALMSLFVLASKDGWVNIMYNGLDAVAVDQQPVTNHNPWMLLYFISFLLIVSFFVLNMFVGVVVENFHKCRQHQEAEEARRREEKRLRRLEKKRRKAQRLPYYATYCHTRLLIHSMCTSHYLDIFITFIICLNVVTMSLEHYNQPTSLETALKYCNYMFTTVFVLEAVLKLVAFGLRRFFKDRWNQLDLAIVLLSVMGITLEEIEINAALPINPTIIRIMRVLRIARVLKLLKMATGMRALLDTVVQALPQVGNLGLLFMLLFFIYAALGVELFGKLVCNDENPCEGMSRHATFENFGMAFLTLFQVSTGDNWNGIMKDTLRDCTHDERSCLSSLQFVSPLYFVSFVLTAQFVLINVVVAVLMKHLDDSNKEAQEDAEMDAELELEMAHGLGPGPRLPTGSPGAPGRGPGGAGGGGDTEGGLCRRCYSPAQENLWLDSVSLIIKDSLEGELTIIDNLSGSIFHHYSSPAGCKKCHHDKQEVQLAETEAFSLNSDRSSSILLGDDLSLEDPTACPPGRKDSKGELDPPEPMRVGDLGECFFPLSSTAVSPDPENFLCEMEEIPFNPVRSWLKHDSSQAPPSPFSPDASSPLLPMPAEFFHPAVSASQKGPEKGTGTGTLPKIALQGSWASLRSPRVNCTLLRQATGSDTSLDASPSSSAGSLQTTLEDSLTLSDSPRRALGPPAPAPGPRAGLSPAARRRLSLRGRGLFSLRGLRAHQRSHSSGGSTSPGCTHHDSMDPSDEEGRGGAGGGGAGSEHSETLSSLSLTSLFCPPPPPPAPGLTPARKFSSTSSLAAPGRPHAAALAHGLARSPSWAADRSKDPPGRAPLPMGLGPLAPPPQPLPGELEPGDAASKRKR
Protocol: as §1, §2, §3

[5] = 50 μM, HEK 293-Cav3.2 cells, vs non-treated cells
[6] = 50 μM, differentiated ND7/23 cells
[7] = increasing concentrations 1-50 μM

SMILES: O=C1C=C(NC(=O)c2cc(F)cc(F)c2)CC(C(F)(F)F)C1 (stereo not drawn) [RHB107]
- Effect on whole cell capacitance ([1]; 50 μM, HEK 293-Cav3.2 cells): no significant changes; also recorded: no effect on cell capacitance

SMILES: O=C1C=C(NC(=O)c2cc(C(F)(F)F)cc(C(F)(F)F)c2)CC(C(F)(F)F)C1 (stereo not drawn) [RHB-77, N-(3-oxo-5-(trifluoromethyl)cyclohex-1-en-1-yl)-3,5-bis(trifluoromethyl)benzamide]
- inhibition at 50 µM ([1]; HEK293, 50 μM, Cav3.2 transfected HEK 293 cells, read-out: Inhibition of calcium currents on T-type calcium channels): 90%
- Concentration dependence of the inhibition of T-type Ca2+ currents ([1]; HEK 293-Cav3.2 cells): significant inhibition of T-type calcium currents in a concentration-dependent manner

SMILES: CC1CC(=O)C=C(NC(=O)c2ccc(C(F)(F)F)cc2)C1 (stereo not drawn) [THA40, N-(5-methyl-3-oxocyclohex-1-en-1-yl)-4-(trifluoromethyl) benzamide]
- Effect on T-type Ca2+ current density [2, 6]: None of the tested compounds has any effect
- Effect on T-type Ca2+ current density ([2]; 50 μM, differentiated ND7/23 cells, listed as TTA40): no effect on Ca^2+ current densities

SMILES: O=C1C=C(NC(=O)c2cccc(C(F)(F)F)c2F)CC(C(F)(F)F)C1 (stereo not drawn) [RHB103]
- Effect on T-type Ca2+ current density [1, 5]: No inhibitory effect

Continued, in another order:

- Effect on T-type Ca2+ current density [1, 5]: No inhibitory effect
SMILES: Cc1cc(C)cc(C(=O)NC2=CC(=O)CC(C)C2)c1 (stereo not drawn) [RHB59, 3,5-dimethyl-N-(5-methyl-3-oxocyclohex-1-en-1-yl)benzamide]

- pIC50 ([2]; differentiated ND7/23 cells, read-out: IC50 on T-type Ca2+ current densities): 4.97
- Effect on inactivation time constant (τ) ([4]; 10 μM): significant reduction
- Effect on steady-state inactivation ([4]; 10 μM): no effect
- Effect on voltage-current relationship ([4]; 10 μM): considerable reduction
- Shift in voltage-dependence of T-type Ca2+ currents ([4]; 10 μM): no significant shift
- Effect on T-type Ca2+ current density [4, 7]: significant reduction
- V1/2 of steady-state inactivation (Boltzmann fit) ([4]; treated cells, 10 μM): −58.5±2.1 mV
- Effect on inactivation time constant (τ) ([1]; 10 μM): no effect on the inactivation τ
- Effect on peak current ([1]; 10 μM): significant reduction
- Shift of the steady-state inactivation curve ([1]; 10 μM): leftward shift
- Effect on cell capacitance ([1]; 1-50 μM): no effect on cell capacitance
- Effect on T-type Ca2+ current density [1, 7]: significant reduction
- V1/2 of steady-state inactivation (Boltzmann fit) ([1]; treated cells, 10 μM): −70.2±1.0 mV
SMILES: CC1CC(=O)C=C(NC(=O)c2cc(C(F)(F)F)cc(C(F)(F)F)c2)C1 (stereo not drawn) [IAA65, N-(5-methyl-3-oxocyclohex-1-en-1-yl)-3,5-bis(trifluoromethyl) benzamide]
- Effect on Na+ current density [3]: no noticeable effect; also recorded: no effect on the Na^+ current densities
- Reversal of the effect on T-type Ca2+ current density after drug washout ([2]; 50 μM, 5 min washout): no significant recovery; also recorded: did not reverse the drug effect
- Effect on T-type Ca2+ current density [2, 6]: significant reduction
- Effect on activation time constant (τ) ([4]; 10 μM): rightward shift; also recorded: significant increase
- Effect on cell capacitance ([4]; 1-50 μM): no effect on call capacitance; also recorded: no effect on cell capacitance
- Effect on activation time constant (τ) ([1]; 10 μM): no significant changes; also recorded: no effect
- Shift in voltage-dependence of T-type Ca2+ currents ([1]; 10 μM): without significant changes; also recorded: no significant shift
